Measured values as given in ChEMBL document CHEMBL1148828, “Deoxycholic acid-derived tetraoxane antimalarials and antiproliferatives(1)” (J Med Chem, 2007).
Activity calls are given as the source filed them. The calls are words filed in the database; no cut-off is given here.

Experiments:
T47D = experiment: Antiproliferative activity against human T47D cells after 48 hrs; type: functional
HCC 2998 = experiment: Antiproliferative activity against human HCC2998 cells after 48 hrs; type: functional; conditions: HCC 2998, 48 h
LOX IMVI = experiment: Antiproliferative activity against human LOX IMVI cells after 48 hrs; type: functional
COLO 205 = experiment: Antiproliferative activity against human COLO205 cells after 48 hrs; type: functional
M14 = experiment: Antiproliferative activity against human M14 cells after 48 hrs; type: functional; conditions: M14, 48 h, read-out: LC50 (the source's name)
Plasmodium falciparum [1] = experiment: Antimalarial activity against Plasmodium falciparum TM91C235; type: functional, organism-based
Mus musculus [2] = experiment: Survival of Plasmodium berghei KBG 173 infected CD1 mice (Mus musculus) at 160 mg/kg/day; type: ADME, organism-based; conditions: in vivo
[3] = Metabolic stability in mouse liver microsomes; type: ADME, Microsome; conditions: liver microsomes
CCRF-CEM = experiment: Antiproliferative activity against human CCRF-CEM cells after 48 hrs; type: functional
[4] = Metabolic stability in human liver microsomes; type: ADME, Microsome; conditions: liver microsomes
Plasmodium falciparum [5] = experiment: Antimalarial activity against Plasmodium falciparum D6; type: functional, organism-based
HCT-116 = experiment: Antiproliferative activity against human HCT116 cells after 48 hrs; type: functional; conditions: HCT-116, 48 h; for CC50: read-out: LC50 (the source's name)
HOP-62 = experiment: Antiproliferative activity against human HOP62 cells after 48 hrs; type: functional; conditions: HOP-62, 48 h
Plasmodium falciparum [6] = experiment: Antimalarial activity against Plasmodium falciparum W2; type: functional, organism-based
U-251 = experiment: Antiproliferative activity against human U251 cells after 48 hrs; type: functional; conditions: U-251, 48 h
HCT-15 = experiment: Antiproliferative activity against human HCT15 cells after 48 hrs; type: functional; conditions: HCT-15, 48 h
Mus musculus [7] = experiment: Survival of Plasmodium berghei KBG 173 infected CD1 mice (Mus musculus) at 40 mg/kg/day; type: ADME, organism-based; conditions: in vivo
786-0 = experiment: Antiproliferative activity against human 786-0 cells after 48 hrs; type: functional; conditions: Homo sapiens, 786-0, 48 h
Plasmodium berghei [8] = experiment: Antimalarial activity as survivors after 31 days in Plasmodium berghei KBG173 infected CD1 mice (Mus musculus) at 320 mg/kg/day; type: functional, organism-based; conditions: KBG 173
Plasmodium berghei [9] = experiment: Antimalarial activity as survivors after 31 days in Plasmodium berghei KBG173 infected CD1 mice (Mus musculus) at 10 mg/kg/day; type: functional, organism-based; conditions: KBG 173
Mus musculus [10] = experiment: Survival of Plasmodium berghei KBG 173 infected CD1 mice (Mus musculus) at 80 mg/kg/day; type: ADME, organism-based; conditions: in vivo
[11] = (§1) Toxicity in Plasmodium berghei KBG 173 infected CD1 mice (Mus musculus); type: organism-based; conditions: CD1, mouse, in vivo
Mus musculus [12] = species on record: Mus musculus; experiment: as §1; type: organism-based; conditions: mouse, in vivo
NCI = experiment: Growth inhibition of human NCI DTP 60 cells; type: functional; conditions: Homo sapiens, NCI
Mus musculus [13] = experiment: Survival of Plasmodium berghei KBG 173 infected CD1 mice (Mus musculus) at 320 mg/kg/day; type: ADME, organism-based; conditions: in vivo
SF-268 = experiment: Antiproliferative activity against human SF268 cells after 48 hrs; type: functional; conditions: SF-268, 48 h
Mus musculus [14] = experiment: Survival of Plasmodium berghei KBG 173 infected CD1 mice (Mus musculus) at 10 mg/kg/day; type: ADME, organism-based; conditions: in vivo
[15] = read-out: LC50 (the source's name)
[16] = Plasmodium falciparum, TM91C235

CC(=O)O[C@H]1C[C@H]2[C@@H](CC[C@@H]3CC4(CC[C@@]32C)OOC2(CCC(C)CC2)OO4)[C@@H]2CC[C@H]([C@H](C)CCC(=O)NCCN(C)C)[C@@]12C (stereo in doubt; 16)
GI50 (T47D): 130 nM
TGI (T47D): 410 nM
GI50 (HCC 2998): 77 nM
TGI (HCC 2998): 210 nM
CC50 (HCC 2998; [15]): 980 nM
LC50 (concentration killing 50% of cells) (LOX IMVI): 22 nM
GI50 (LOX IMVI; Homo sapiens, LOX IMVI, 48 h): < 5 nM
TGI (LOX IMVI; Homo sapiens, LOX IMVI, 48 h): 7.4 nM
GI (COLO 205): 0.083 µM
TGI (COLO 205; Homo sapiens, COLO 205, 48 h): 20 nM
CC50 (COLO 205; Homo sapiens, COLO 205, 48 h, read-out: LC50 (the source's name)): 490 nM
CC50 (M14): 460 nM
IC50 (Plasmodium falciparum [1]): 14.7 nM
IC90 (Plasmodium falciparum [1]): 24.2 nM
Survival (Mus musculus [2]): 29 days
half-life [3]: > 120 min
GI (CCRF-CEM): 0.056 µM
LC50 (concentration killing 50% of cells) (CCRF-CEM; Homo sapiens, CCRF-CEM, 48 h): 500 nM
TGI (CCRF-CEM; Homo sapiens, CCRF-CEM, 48 h): 170 nM
half-life [4]: 110 min
IC50 (Plasmodium falciparum [5]): 12.8 nM
IC90 (Plasmodium falciparum [5]): 18.7 nM
GI50 (HCT-116): 9 nM
TGI (HCT-116): 21 nM
CC50 (HCT-116): 47 nM
GI50 (HOP-62): 54 nM
LC50 (HOP-62): 1160 nM
TGI (HOP-62): 230 nM
IC50 (Plasmodium falciparum [6]): 16.8 nM
IC90 (Plasmodium falciparum [6]): 19.8 nM
GI50 (U-251): 26 nM
TGI (U-251): 87 nM
GI50 (HCT-15): 94 nM
Survival (Mus musculus [7]): 9 days
GI50 (786-0): 60 nM
TGI (786-0): 150 nM
CC50 (786-0; [15]): 390 nM

CC(=O)O[C@H]1C[C@H]2[C@@H]([C@H](OC(C)=O)C[C@@H]3CC4(CC[C@@]32C)OOC2(CCCCC2)OO4)[C@@H]2CC[C@H]([C@H](C)CCC(=O)NCCN(C)C)[C@@]12C
GI50 (LOX IMVI; Homo sapiens, LOX IMVI, 48 h): < 10 nM
LC50 (concentration killing 50% of cells) (LOX IMVI; Homo sapiens, LOX IMVI, 48 h): 68.8 nM
TGI (LOX IMVI; Homo sapiens, LOX IMVI, 48 h): 22.4 nM
Activity (Plasmodium berghei [8]): Active
IC50 (Plasmodium falciparum [1]; [16]): 19.6 nM
IC90 (Plasmodium falciparum [1]; [16]): 37.9 nM
half-life [3]: 40 min
Activity (Plasmodium berghei [9]): inactive
Survival (Mus musculus [10]): 25 days
half-life [4]: 40 min
MTD [11]: > 960 mg/kg
MCD (Mus musculus [12]): <= 40 mg/kg/day
GI50 (NCI): < 10 nM
IC50 (Plasmodium falciparum [5]; Plasmodium falciparum, D6): 28.2 nM
IC90 (Plasmodium falciparum [5]; Plasmodium falciparum, D6): 45.1 nM
Survival (Mus musculus [13]): 31 days
GI50 (HCT-116): 83.1 nM
TGI (HCT-116): 1690 nM
CC50 (HCT-116): 4620 nM
GI50 (HOP-62): < 10 nM
LC50 (HOP-62): 83 nM
TGI (HOP-62): 16.6 nM
GI50 (SF-268): 785 nM
TGI (SF-268): 2250 nM
CC50 (SF-268; [15]): 5350 nM
IC50 (Plasmodium falciparum [6]; Plasmodium falciparum, W2): 14.5 nM
IC90 (Plasmodium falciparum [6]; Plasmodium falciparum, W2): 45.1 nM
Survival (Mus musculus [14]): 8 days
Survival (Mus musculus [7]): 21 days
